Among the data in ChEMBL document CHEMBL1152510, “Melanogenesis inhibitors from the rhizomes of Alpinia officinarum in B16 melanoma cells” (Bioorg Med Chem, 2009) are inhibition, IC50 and Activity values, retold here.

Structures are written as SMILES. Calls of active or inactive are those of the source. No cut-off for these calls is given here. Bounds are passed on as bounds.

Experiment [1] is described as follows: Inhibition of melanogenesis in theophylline-stimulated mouse B16-4A5 cells at 300 uM after 72 hrs. Type of experiment: functional. The following applies: B16-4A5, 72 h.
Experiment [2] can be described thus: Inhibition of melanogenesis in theophylline-stimulated mouse B16-4A5 cells at 1000 uM after 72 hrs. It is filed as functional. The conditions noted are these: B16-4A5, 72 h.
A short description of experiment [3]: Inhibition of theophylline-stimulated mouse B16-4A5 cell proliferation assessed as cell viability at 300 uM after 68 hrs by WST8 assay. Type of experiment: functional. The conditions noted are these: B16-4A5, 68 h.
A short description of experiment [4]: Inhibition of theophylline-stimulated mouse B16-4A5 cell proliferation assessed as cell viability at 1000 uM after 68 hrs by WST8 assay. It is filed as functional. The following applies: B16-4A5, 68 h. (Formazan colour is commonly taken as a measure of viable cells.)
A short description of experiment [5]: cells. The conditions noted are these: Mus musculus, B16-4A5, 72 h, read-out: INH.
Description: Inhibition of melanogenesis in theophylline-stimulated mouse B16-4A5 cells at 10 uM after 72 hrs
Experiment [6] in a line: cells. The following applies: Mus musculus, B16-4A5, 72 h, read-out: INH. The source holds these as a separate data set.
Description: Inhibition of melanogenesis in theophylline-stimulated mouse B16-4A5 cells at 30 uM after 72 hrs
Experiment [7] in a line: cells. The conditions noted are these: Mus musculus, B16-4A5, 72 h, read-out: INH. This is another data set of the same source.
Description: Inhibition of melanogenesis in theophylline-stimulated mouse B16-4A5 cells at 100 uM after 72 hrs
The next experiment concerns B16. Nature of the experiment: cells. The conditions noted are these: Mus musculus, B16, 72 h.
Experiment [8] can be described thus: cells. The conditions noted are these: Mus musculus, B16-4A5, 68 h, read-out: INH.
Description: Inhibition of theophylline-stimulated mouse B16-4A5 cell proliferation assessed as cell viability at 10 uM after 68 hrs by WST8 assay
Experiment [9] can be described thus: cells. The conditions noted are these: Mus musculus, B16-4A5, 68 h, read-out: INH. The source holds these as a separate data set.
Description: Inhibition of theophylline-stimulated mouse B16-4A5 cell proliferation assessed as cell viability at 30 uM after 68 hrs by WST8 assay
A short description of experiment [10]: cells. The conditions noted are these: Mus musculus, B16-4A5, 68 h, read-out: INH. The source holds these as a separate data set.
Description: Inhibition of theophylline-stimulated mouse B16-4A5 cell proliferation assessed as cell viability at 100 uM after 68 hrs by WST8 assay
Experiment [11] in a line: cells. The following applies: Mus musculus, B16-4A5, 68 h.
Description: Inhibition of theophylline-stimulated mouse B16-4A5 cell proliferation assessed as cell viability after 68 hrs by WST8 assay
The target in experiment [12] is T1, Tyrosinase (Agaricus bisporus) (UniProt O42713).
T1 sequence (whole entry): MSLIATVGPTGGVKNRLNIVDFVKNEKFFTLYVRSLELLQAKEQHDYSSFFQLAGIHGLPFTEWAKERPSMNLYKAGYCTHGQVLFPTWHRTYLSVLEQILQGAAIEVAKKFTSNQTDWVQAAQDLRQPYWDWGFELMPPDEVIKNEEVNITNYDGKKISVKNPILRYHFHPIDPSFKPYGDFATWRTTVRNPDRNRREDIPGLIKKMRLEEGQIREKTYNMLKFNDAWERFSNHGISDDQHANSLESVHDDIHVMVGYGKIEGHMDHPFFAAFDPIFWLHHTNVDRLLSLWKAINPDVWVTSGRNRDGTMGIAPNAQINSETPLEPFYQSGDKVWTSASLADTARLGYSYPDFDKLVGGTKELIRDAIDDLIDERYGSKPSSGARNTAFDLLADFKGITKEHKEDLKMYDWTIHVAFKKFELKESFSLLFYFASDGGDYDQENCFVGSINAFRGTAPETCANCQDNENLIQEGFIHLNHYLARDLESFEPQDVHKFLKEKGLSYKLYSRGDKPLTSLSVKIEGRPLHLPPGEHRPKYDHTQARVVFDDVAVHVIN
In words: Inhibition of mushroom tyrosinase at 1 uM.

In experiment [13] the target is T1, Tyrosinase (Agaricus bisporus). Nature of the experiment: Inhibition of mushroom tyrosinase at 3 uM.
The subject of experiment [14] is B16-4A5. In words: Inhibition of tyrosinase mRNA expression in theophylline-stimulated mouse B16-4A5 cells at 1 to 30 uM after 72 hrs. It is filed as functional, cell-based.
Experiment [15] deals with B16-4A5. Nature of the experiment: Inhibition of TRP1 mRNA expression in theophylline-stimulated mouse B16-4A5 cells at 1 to 30 uM after 72 hrs. Type of experiment: functional, cell-based.
Experiment [16] has as its system B16-4A5. In words: Inhibition of TRP2 mRNA expression in theophylline-stimulated mouse B16-4A5 cells at 1 to 30 uM after 72 hrs. Type of experiment: functional, cell-based.
The test system of experiment [17] is B16-4A5. Nature of the experiment: Inhibition of microphthalmia-associated transcriptional factor level in theophylline-stimulated mouse B16-4A5 cells at 1 to 30 uM after 24 hrs. It is filed as functional, cell-based.
The subject of experiment [18] is B16-4A5. Nature of the experiment: Inhibition of microphthalmia-associated transcriptional factor level in theophylline-stimulated mouse B16-4A5 cells at 1 to 30 uM after 48 hrs. It is filed as functional, cell-based.
In a further experiment the target is T2, Tyrosinase (Agaricus bisporus, UniProt O42713).
T2 sequence (O42713 whole entry): T1 sequence (whole entry)

Experiment [19] in a line: cells. The following applies: Mus musculus, B16-4A5, 72 h, read-out: INH. This is another data set of the same source.
Description: Inhibition of melanogenesis in theophylline-stimulated mouse B16-4A5 cells at 1 uM after 72 hrs
The nature of experiment [20]: cells. The conditions noted are these: Mus musculus, B16-4A5, 72 h, read-out: INH. The source holds these as a separate data set.
Description: Inhibition of melanogenesis in theophylline-stimulated mouse B16-4A5 cells at 3 uM after 72 hrs
The nature of experiment [21]: cells. The following applies: Mus musculus, B16-4A5, 68 h, read-out: INH. The source holds these as a separate data set.
Description: Inhibition of theophylline-stimulated mouse B16-4A5 cell proliferation assessed as cell viability at 1 uM after 68 hrs by WST8 assay
Experiment [22] can be described thus: cells. The conditions noted are these: Mus musculus, B16-4A5, 68 h, read-out: INH. The source holds these as a separate data set.
Description: Inhibition of theophylline-stimulated mouse B16-4A5 cell proliferation assessed as cell viability at 3 uM after 68 hrs by WST8 assay

Broadly, the IC50 is the concentration at which inhibition is half-maximal. In the case of `OC[C@H]1O[C@@H](Oc2ccc(O)cc2)[C@H](O)[C@@H](O)[C@@H]1O` [ARBUTIN], the inhibition at 300 µM came out at 71% in experiment [1] and 20.2% in [3]. Also, the values for the inhibition at 1000 µM in experiment [2] and in experiment [4] were 88.7% and 46.9%, respectively. The inhibition at 10 µM worked out at 6.7% in the experiment “cells [5]” and 8.7% in the experiment “cells [8]”. Further, the inhibition at 30 µM in the experiment “cells [6]” stood at 17.8%; in “cells [9]”, 17.6%. Also, the inhibition at 100 µM turned out to be 46.9% in the experiment “cells [7]” and 21.9% in “cells [10]”. Besides, the IC50 was 116 µM with B16 and above 1000 µM in the experiment “cells [11]”.

For the molecule `COc1ccc(-c2oc3cc(O)cc(O)c3c(=O)c2O)cc1` [KAEMPFERIDE], the inhibition in [12] is -1.7%; in experiment [13], -0.2%. Further, the outcome in the experiment on B16-4A5 [14], in the experiment on B16-4A5 [15], in the experiment on B16-4A5 [16] and in the experiment with B16-4A5 [18] was Active. In addition, the outcome in the experiment with B16-4A5 [17] was inactive. Besides, the IC50 on Tyrosinase was above 100 µM; in the experiment with B16, 16 µM; in the experiment “cells [11]”, above 100 µM. The inhibition at 1 µM was 0% in “cells [19]” and -2% in the experiment “cells [21]”. Further, the inhibition at 3 µM in the experiment “cells [20]” amounted to 5.9%; in the experiment “cells [22]”, 3.1%. For the same molecule, the inhibition at 10 µM turned out to be 39.9% in “cells [5]” and 7.9% in “cells [8]”. Further, the inhibition at 30 µM in the experiment “cells [6]” worked out at 81.2%; in the experiment “cells [9]”, 7.4%. The inhibition at 100 µM in the experiment “cells [7]” stood at 78.4%; in the experiment “cells [10]”, 11.2%.
